Publication PMC7504435, “Combined Protein- and Ligand-Observed NMR Workflow to Screen Fragment Cocktails against Multiple Proteins: A Case Study Using Bromodomains” (Molecules, 2020)

Columns and labels:
Assay type in all cases: binding
BPTF bromodomain = BPTF bromodomain (Homo sapiens, UniProt Q12830); experiment: Competition 1H CPMG NMR with BPTF; set-up: deconvolution of the hit mixtures using the non-fluorine-labeled bromodomains; made in house; host or cells: E. coli BL21(DE3)
Description: The competition ^1H CPMG NMR and PrOF NMR assays were employed to further probe the binding mode of 9 to PfGCN5.
^1H CPMG NMR. ^1H CPMG NMR screen data were acquired on Bruker Avance III HD 500 with the 5 mm Prodigy TCI cryoprobe inverse cryoprobe (^1H 2500:1 S/N). Competition ^1H CPMG NMR data were acquired on Bruker 700 MHz Avance with a CryoProbe 5 mm TXI (^1H S:N with H2O suppression (2mM sucrose) - 900:1) and excitation sculpting water suppression. Proteins were present at 10 µM in 50 mM phosphate, 100 mM NaCl, pH 7.4 in 100% D2O. In separate NMR tubes, a ^1H CPMG NMR pulse was applied to a 1) mixture of ligands (individual ligands present at 100 µM for the screen and 50 µM for competition experiments) and 2) ligands + protein. […] For the competition experiments, τ was increased to 4.0 ms.

PfGCN5 bromodomain [1] = target: T1, PfGCN5 bromodomain (Plasmodium falciparum, UniProt Q8IB67); experiment: 1H-15N HSQC NMR titration with PfGCN5
T1 sequence (Q8IB67 entry or part of it): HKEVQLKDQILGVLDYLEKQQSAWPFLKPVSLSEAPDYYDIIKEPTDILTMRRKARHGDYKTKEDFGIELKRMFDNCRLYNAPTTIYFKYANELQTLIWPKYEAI
Source text: To cross-validate our findings, ^1H-^15N HSQC NMR was used to further examine the binding mode of 9 to PfGCN5 in the presence and absence of known ligands. The ^1H-^15N HSQC spectrum of PfGCN5 is unassigned. For ease of spectral interpretation, all resonances that were distinctly visible were assigned as 1-64. Fragment 9, GSK4027, and the acetylated peptide H2A.Z II K7,13ac were titrated against PfGCN5. At the highest ligand concentration, resonances with Δδ > x^− + 0.60*s, where x^− is the mean and s is the standard deviation at the highest concentration, were defined as significant. The correction factor of 0.60 is to compensate for only 60% of the resonances being usable for analysis. Titration of 9 with PfGCN5 gave linear and non-linear dose-dependent chemical shift perturbations. Of the five resonances with non-linear movement, only one (10) was considered to have significant movement. […] This affinity with the non-fluorine-labeled protein is similar but higher than the affinity determined by PrOF NMR. […]
^1H-^15N SOFAST HSQC.^1H-^15N SOFAST HSQC spectra were obtained on a Bruker 600 MHz Avance NEO with a CryoProbe 5 mm TCI (^1H, ^13C, ^15N, ^2H) w/ Z-gradient using Bruker’s IBS_SOFAST.x method with 32 scans, 0.05 s acquisition time, and 0.2 s delay. […] Data were processed with nmrDraw, nmrPipe, and NFRAM Sparky. Δδ^1H-^15N was calculated using Equation (3). […]

PfGCN5 bromodomain [2] = target: T1, PfGCN5 bromodomain; experiment: Competition 1H CPMG NMR with PfGCN5
Source text: The competition ^1H CPMG NMR and PrOF NMR assays were employed to further probe the binding mode of 9 to PfGCN5. […] At high concentrations, at or above the protein concentration, the competition maxed out at ~ 50% (Figure 2, Figure S10, Table S5). Conversely, TP-238 was able to compete 9 off from BPTF at low concentrations.
^1H CPMG NMR. ^1H CPMG NMR screen data were acquired on Bruker Avance III HD 500 with the 5 mm Prodigy TCI cryoprobe inverse cryoprobe (^1H 2500:1 S/N). Competition ^1H CPMG NMR data were acquired on Bruker 700 MHz Avance with a CryoProbe 5 mm TXI (^1H S:N with H2O suppression (2mM sucrose) - 900:1) and excitation sculpting water suppression. Proteins were present at 10 µM in 50 mM phosphate, 100 mM NaCl, pH 7.4 in 100% D2O. In separate NMR tubes, a ^1H CPMG NMR pulse was applied to a 1) mixture of ligands (individual ligands present at 100 µM for the screen and 50 µM for competition experiments) and 2) ligands + protein. For competition experiments, the ligands were used individually, and the competitor ligands were spiked into tube 2. ^1H CPMG NMR parameters for the screen: NS = 128, acquisition time = 2 s, τ = 2.5 ms, and L = 120. For the competition experiments, τ was increased to 4.0 ms.

Nc1ccc2c(c1)N(C(=O)C1CC1)CCC2 [Fragment 9] was tested, and the “% drop BPTF” value (BPTF bromodomain; resonance of 9 at 2.6884 ppm) was 46%, the “% drop BPTF” value (BPTF bromodomain; resonance of 9 at 6.98 ppm) was 68% and the Kd (PfGCN5 bromodomain [1]) was 7.5 µM. For the same compound, the “% drop PfGCN5” value (PfGCN5 bromodomain [2]; resonance of 9 at 2.6884 ppm, GSK series) was 72%, the “% drop PfGCN5” value (PfGCN5 bromodomain [2]; resonance of 9 at 2.6884 ppm, L-Moses series) was 83% and the “% drop PfGCN5” value (PfGCN5 bromodomain [2]; resonance of 9 at 6.98 ppm, GSK series) was 71%. For the same compound, the “% drop PfGCN5” value (PfGCN5 bromodomain [2]; resonance of 9 at 6.98 ppm, L-Moses series) was 75%.
